PubChem BioAssay AID248 (DTP/NCI, 2004)
Several values for one entry are separate records, joined by “and”; a condition that tells them apart may be missing. Identical values can stand only once. Inconclusive results and toxic doses are left out. Cut-off read from the data, not from the text of the source: active = T/C of 150% or more; inactive = T/C below 125%.

Test system: L1210 leukemia ip in BDF1 mice, survival T/C
Assay: NCI In Vivo Anticancer Drug Screen. Data for tumor model L1210 Leukemia (intraperitoneal) in B6D2F1 (BDF1) mice
Conditions: endpoint: mean survival time, higher = longer survival
Procedure, shortened: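 Mice bearing the transplanted tumor received compound or vehicle. Survival of the treated group was divided by that of the vehicle-treated control group to give the ratio.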

[1] = dose: 100.0 mg/kg/injection, schedule: Q04DX003 (ip), vehicle: saline
[2] = dose: 200.0 mg/kg/injection, schedule: Q04DX003 (ip), vehicle: saline
[3] = dose: 100.0 mg/kg/injection, schedule: Q01DX009 (ip), vehicle: saline
[4] = dose: 200.0 mg/kg/injection, schedule: Q01DX009 (ip), vehicle: saline
[5] = dose: 400.0 mg/kg/injection, schedule: Q01DX009 (ip), vehicle: saline
[6] = dose: 400.0 mg/kg/injection, schedule: Q04DX003 (ip), vehicle: saline
[7] = dose: 100.0 mg/kg/injection, schedule: Q01DX009 (ip), vehicle: Klucel (hydroxypropylcellulose) (HPC)
[8] = dose: 100.0 mg/kg/injection, schedule: Q04DX003 (ip), vehicle: Klucel (hydroxypropylcellulose) (HPC)
[9] = dose: 200.0 mg/kg/injection, schedule: Q01DX009 (ip), vehicle: Klucel (hydroxypropylcellulose) (HPC)
[10] = dose: 200.0 mg/kg/injection, schedule: Q04DX003 (ip), vehicle: Klucel (hydroxypropylcellulose) (HPC)
[11] = dose: 400.0 mg/kg/injection, schedule: Q01DX009 (ip), vehicle: Klucel (hydroxypropylcellulose) (HPC)
[12] = dose: 400.0 mg/kg/injection, schedule: Q04DX003 (ip), vehicle: Klucel (hydroxypropylcellulose) (HPC)
[13] = dose: 100.0 mg/kg/injection, schedule: Q01DX001 (ip), vehicle: saline
[14] = dose: 200.0 mg/kg/injection, schedule: Q01DX001 (ip), vehicle: saline
[15] = dose: 100.0 mg/kg/injection, schedule: Q04DX002 (ip), vehicle: saline with Tween-80
[16] = dose: 200.0 mg/kg/injection, schedule: Q04DX002 (ip), vehicle: saline with Tween-80
[17] = dose: 400.0 mg/kg/injection, schedule: Q04DX002 (ip), vehicle: saline with Tween-80

Measured: T/C

O=c1cc2oc3c(O)c(O)ccc3c3c4ccccc4c(=O)c(c1)c23
inactive: dose: 12.5 mg/kg/injection, schedule: Q01DX009 (ip), vehicle: saline 92 % of control | dose: 25.0 mg/kg/injection, schedule: Q01DX009 (ip), vehicle: saline 96 % of control | dose: 50.0 mg/kg/injection, schedule: Q01DX009 (ip), vehicle: saline 103 % of control and 91 % of control | [1] 96 % of control | [2] 102 % of control

NC(=O)C(N)Cc1ccc(O)c(O)c1 (stereo not given)
inactive: [3] 107 % of control | [1] 102 % of control | [4] 102 % of control | [2] 98 % of control | [5] 109 % of control | [6] 115 % of control | dose: 800.0 mg/kg/injection, schedule: Q01DX009 (ip), vehicle: saline 103 % of control and 114 % of control | dose: 1600.0 mg/kg/injection, schedule: Q01DX009 (ip), vehicle: saline 104 % of control

O=C(c1ccc(-c2ccccc2)cc1)C1CC1c1ccccc1 (stereo not given)
inactive: dose: 100.0 mg/kg/injection, schedule: Q01DX009 (ip), vehicle: saline sonified 97 % of control | dose: 200.0 mg/kg/injection, schedule: Q01DX009 (ip), vehicle: saline sonified 96 % of control | dose: 400.0 mg/kg/injection, schedule: Q01DX009 (ip), vehicle: saline sonified 91 % of control

CC1(C)CC(=O)C2=C(C1)Nc1ccccc1CC2c1c[nH]c2ccccc12 (stereo not given)
inactive: dose: 100.0 mg/kg/injection, schedule: Q01DX001 (ip), vehicle: other 94 % of control | dose: 200.0 mg/kg/injection, schedule: Q01DX001 (ip), vehicle: other 103 % of control | dose: 400.0 mg/kg/injection, schedule: Q01DX001 (ip), vehicle: other 103 % of control

O=c1cc(Br)c(=O)c2cc(Br)cc(Br)c2[nH]1
inactive: dose: 25.0 mg/kg/injection, schedule: Q01DX009 (ip), vehicle: Klucel (hydroxypropylcellulose) (HPC) 95 % of control | dose: 50.0 mg/kg/injection, schedule: Q01DX009 (ip), vehicle: Klucel (hydroxypropylcellulose) (HPC) 98 % of control | [7] 90 % of control | [8] 98 % of control | [9] 87 % of control | [10] 106 % of control | [11] 89 % of control | [12] 88 % of control

CC1C(c2ccccc2)OCCN1C (stereo not given)
inactive: dose: 50.0 mg/kg/injection, schedule: Q04DX003 (ip), vehicle: saline 108 % of control | [13] 93 % of control | [1] 108 % of control | [14] 104 % of control | [2] 104 % of control

CCOC(=O)C1=NN(c2ccccc2)C(=O)C1N=Nc1ccc(S(=O)(=O)Nc2ncccn2)cc1 (stereo not given)
inactive: [13] 98 % of control | [14] 96 % of control | dose: 400.0 mg/kg/injection, schedule: Q01DX001 (ip), vehicle: saline 101 % of control

CC(C)CCCC(C)CC1CC(C)CCC1O (stereo not given)
inactive: [7] 93 % of control | [8] 98 % of control | [9] 92 % of control | [10] 94 % of control | [11] 101 % of control | [12] 96 % of control

CCCCCC(=C/c1ccccc1)/C=N/N=C(N)N
inactive: dose: 15.0 mg/kg/injection, schedule: Q01DX Z (ip), vehicle: saline 93 % of control | dose: 30.0 mg/kg/injection, schedule: Q01DX Z (ip), vehicle: saline 104 % of control | dose: 30.0 mg/kg/injection, schedule: Q01DX Z (oral), vehicle: saline 94 % of control | dose: 60.0 mg/kg/injection, schedule: Q01DX Z (ip), vehicle: saline 98 % of control | dose: 60.0 mg/kg/injection, schedule: Q01DX Z (oral), vehicle: saline 90 % of control | dose: 120.0 mg/kg/injection, schedule: Q01DX Z (oral), vehicle: saline 94 % of control

O=S(CCCl)CCCl
inactive: dose: 0.21 mg/kg/injection, schedule: Q04DX003 (ip), vehicle: Klucel (hydroxypropylcellulose) (HPC) 95 % of control | dose: 0.42 mg/kg/injection, schedule: Q04DX003 (ip), vehicle: Klucel (hydroxypropylcellulose) (HPC) 93 % of control | dose: 0.85 mg/kg/injection, schedule: Q04DX003 (ip), vehicle: Klucel (hydroxypropylcellulose) (HPC) 98 % of control | dose: 0.9 mg/kg/injection, schedule: Q01DX009 (ip), vehicle: Klucel (hydroxypropylcellulose) (HPC) 116 % of control | dose: 1.3 mg/kg/injection, schedule: Q01DX009 (ip), vehicle: Klucel (hydroxypropylcellulose) (HPC) 116 % of control | dose: 2.0 mg/kg/injection, schedule: Q04DX003 (ip), vehicle: Klucel (hydroxypropylcellulose) (HPC) 120 % of control | dose: 2.6 mg/kg/injection, schedule: Q04DX003 (ip), vehicle: Klucel (hydroxypropylcellulose) (HPC) 123 % of control | dose: 6.0 mg/kg/injection, schedule: Q04DX003 (ip), vehicle: Klucel (hydroxypropylcellulose) (HPC) 115 % of control | dose: 8.0 mg/kg/injection, schedule: Q01DX009 (ip), vehicle: Klucel (hydroxypropylcellulose) (HPC) 109 % of control | dose: 8.0 mg/kg/injection, schedule: Q04DX003 (ip), vehicle: Klucel (hydroxypropylcellulose) (HPC) 114 % of control | dose: 12.5 mg/kg/injection, schedule: Q04DX003 (ip), vehicle: Klucel (hydroxypropylcellulose) (HPC) 90 % of control | dose: 50.0 mg/kg/injection, schedule: Q04DX003 (ip), vehicle: Klucel (hydroxypropylcellulose) (HPC) 89 % of control

COc1cc(OC)c(/C=C/c2cnc3ccccc3n2)c(OC)c1
inactive: dose: 3.13 mg/kg/injection, schedule: Q04DX002 (ip), vehicle: saline with Tween-80 104 % of control | dose: 6.25 mg/kg/injection, schedule: Q04DX002 (ip), vehicle: saline with Tween-80 95 % of control | dose: 12.5 mg/kg/injection, schedule: Q04DX002 (ip), vehicle: saline with Tween-80 88 % of control | dose: 50.0 mg/kg/injection, schedule: Q04DX002 (ip), vehicle: saline with Tween-80 90 % of control

O=[N+]([O-])c1cc(C(F)(F)F)ccc1Oc1ccc(Cl)cc1
inactive: [8] 96 % of control | [10] 103 % of control | [12] 96 % of control

Oc1ccccc1/C=N\Sc1ccc(Br)cc1
inactive: [15] 112 % of control | [16] 91 % of control | [17] 94 % of control

OC1COCOC1 (tested in a mixture with another compound)
inactive: [3] 104 % of control | [1] 105 % of control | [4] 104 % of control | [2] 102 % of control | [5] 111 % of control | [6] 109 % of control

Oc1ccc(-c2nnc(-c3ccc(O)cc3)nn2)cc1
inactive: dose: 100.0 mg/kg/injection, schedule: Q04DX002 (ip), vehicle: Klucel (hydroxypropylcellulose) (HPC) 91 % of control | dose: 200.0 mg/kg/injection, schedule: Q04DX002 (ip), vehicle: Klucel (hydroxypropylcellulose) (HPC) 94 % of control | dose: 400.0 mg/kg/injection, schedule: Q04DX002 (ip), vehicle: Klucel (hydroxypropylcellulose) (HPC) 102 % of control

CC(NCCOc1ccccc1)c1ccccc1 (stereo not given)
inactive: [15] 108 % of control | [16] 105 % of control

O=C(/C=C/c1ccccc1)C1(c2ccccc2)CC1
inactive: dose: 100.0 mg/kg/injection, schedule: Q01DX001 (ip), vehicle: Klucel (hydroxypropylcellulose) (HPC) 98 % of control | dose: 200.0 mg/kg/injection, schedule: Q01DX001 (ip), vehicle: Klucel (hydroxypropylcellulose) (HPC) 100 % of control | dose: 400.0 mg/kg/injection, schedule: Q01DX001 (ip), vehicle: Klucel (hydroxypropylcellulose) (HPC) 98 % of control

CN1CCN(C(=O)Nc2cccc(F)c2)CC1
inactive: dose: 25.0 mg/kg/injection, schedule: Q01DX009 (ip), vehicle: saline with Tween-80 97 % of control | dose: 50.0 mg/kg/injection, schedule: Q01DX009 (ip), vehicle: saline with Tween-80 101 % of control | dose: 100.0 mg/kg/injection, schedule: Q01DX009 (ip), vehicle: saline with Tween-80 94 % of control and 96 % of control

C[Si](C)Cc1cccc(F)c1
inactive: [8] 105 % of control | [10] 105 % of control | [12] 100 % of control

N#CSCc1cc([N+](=O)[O-])c(CSC#N)c([N+](=O)[O-])c1Cl
inactive: dose: 25.0 mg/kg/injection, schedule: Q01DX009 (ip), vehicle: other 89 % of control | dose: 100.0 mg/kg/injection, schedule: Q04DX003 (ip), vehicle: carboxymethylcellulose (CMC) 87 % of control | dose: 200.0 mg/kg/injection, schedule: Q04DX003 (ip), vehicle: carboxymethylcellulose (CMC) 93 % of control

Cc1cc2nc3c(N)ccc(N)c3nc2cc1N
inactive: [15] 97 % of control | [16] 97 % of control | [17] 105 % of control
